The source of these data is patent publication US8058243B2, “Method for treating a brain cancer with ifenprodil” (HSC Research and Development Limited Partnership, priority 2006, dated 2011).

Counter-ions that a name gives are not always drawn. Like-named read-outs stand apart in the source and are kept apart here.

In the assay the test system is murine neural precursor cells (neurosphere cultures). In words: HTS of LOPAC library against secondary neurosphere cultures, MTT proliferation assay at 3 μM, day 7 (z score, P value). In kind it is cell-based, mouse. A general note: Tetrazolium assays rely on reduction of a dye to a coloured formazan, in cell work by metabolically active cells.
Setting [1] is: LOPAC library screen, 3 μM, MTT, neurosphere cultures.
[2] abbreviates: LOPAC primary screen, neurosphere MTT proliferation, 3 μM, day 7.
The mark [3] stands for this setting: yes/no: significantly inhibited neurosphere proliferation in primary screen.
[4] abbreviates: LOPAC library screen at 3 μM, secondary neurosphere cultures, MTT.
Setting [5] is: LOPAC library screen, 3 μM, MTT, secondary neurosphere cultures, day 7.
Setting [6] is: LOPAC library screen at 3 μM, MTT, secondary neurosphere cultures, screened in singlets.
Where [7] appears, read: primary LOPAC screen, 3 μM, MTT, neurosphere proliferation.
[8] abbreviates: yes/no: significantly inhibited neurosphere proliferation in the primary screen.
Setting [9] is: yes = significantly inhibited neurosphere proliferation (P<0.01) in the primary screen.
The mark [10] stands for this setting: yes/no: significantly inhibited neurosphere proliferation (P<0.01) in the primary screen.

In the case of `Cl.Cl.Cl.NCCCCNCCCN` [Spermidine trihydrochloride], the “Z Score” value under setting [1] came to 1.259. Besides, under setting [2], the Z score stood at 1.259. Further, under setting [3], the Activity entry is on record as “no”.
`Cl.Cl.Cl.Cl.NCCCNCCCCNCCCN` [Spermine tetrahydrochloride]: the Activity entry is listed as “no”, the “Z Score” value was found to be 0.3942 and the Z score was 0.394.
With `CCCCCCCCCCCCC/C=C/[C@@H](O)[C@@H](N)CO` [Sphingosine], the “Z Score” value stood at 1.404. The Z score under setting [2] is listed as 1.404. Further, the Activity result under setting [3] is reported as “no”.
Regarding `O=C(CCCN1CCC2(CC1)C(=O)NCN2c1ccccc1)c1ccc(F)cc1` [Spiperone hydrochloride], the “Z Score” value under setting [4] is −0.5168. Under setting [2], this compound registered a Z score of −0.517. For the same compound, the Activity entry under setting [3] is “no”.
Regarding `CC(=O)S[C@@H]1CC2=CC(=O)CC[C@]2(C)[C@H]2CC[C@@]3(C)[C@@H](CC[C@@]34CCC(=O)O4)[C@H]12` [Spironolactone], the Activity entry is reported as “no”. In addition, the “Z Score” value under setting [4] was −0.5258. Besides, the Z score under setting [2] is on record as −0.526.
For the compound `O=C1NCN(c2ccccc2)C12CCN(CC1COc3ccccc3O1)CC2` (stereo not drawn) [Spiroxatrine], the “Z Score” value under setting [1] came to 0.1219. This compound yielded a Z score under setting [2] of 0.122. The Activity result under setting [3] is “no”.
Regarding `C[N+](C)(C)CCOC(=O)CCC(=O)OCC[N+](C)(C)C` [Succinylcholine chloride], the “Z Score” value is recorded as −1.93. This compound also came in with a Z score under setting [2] of −1.930. In addition, under setting [3], the Activity entry is “no”.
`Nc1ccc(S(=O)(=O)Nc2ccnn2-c2ccccc2)cc1` [Sulfaphenazole]: the “Z Score” value under setting [5] is recorded as −1.362. This compound also came in with a Z score under setting [2] of −1.362. In addition, under setting [3], the Activity result is “no”.
For the compound `CC1=C(CC(=O)O)c2cc(F)ccc2/C1=C\c1ccc(S(C)(=O)=O)cc1` [Sulindac sulfone], the “Z Score” value worked out at 0.5924. This compound came in with a Z score under setting [2] of 0.592. For the same compound, the Activity entry under setting [3] was “no”.
For `CC1=C(CC(=O)O)c2cc(F)ccc2/C1=C\c1ccc([S+](C)[O-])cc1` (stereo not drawn) [Sulindac], the Activity entry is “no”. Besides, the “Z Score” value under setting [4] is on record as −0.1942. This compound showed a Z score under setting [2] of −0.194.
In the case of `Cc1ccc(C(=O)Nc2ccc(S(=O)(=O)[O-])c3cc(S(=O)(=O)[O-])cc(S(=O)(=O)[O-])c23)cc1NC(=O)c1cccc(NC(=O)Nc2cccc(C(=O)Nc3cc(C(=O)Nc4ccc(S(=O)(=O)[O-])c5cc(S(=O)(=O)[O-])cc(S(=O)(=O)[O-])c45)ccc3C)c2)c1.[Na+].[Na+].[Na+].[Na+].[Na+].[Na+]` [Suramin hexasodium], the “Z Score” value under setting [6] is 2.284. For the same compound, the Z score under setting [7] came out at 2.284. Moreover, the Activity result under setting [8] is recorded as “no”.
As for `COC(=O)c1c(-c2cc(OC)c(OC)c(OC)c2)c2ccnc(OCc3ncccn3)c2c(=O)n1Cc1ccnc(C)c1` [T-0156], the “Z Score” value worked out at 0.07709. Further, the Z score under setting [7] amounted to 0.077. The Activity result under setting [8] is given as “no”.
Take `COC(=O)c1c(-c2cc(OC)c(OC)c(OC)c2)c2ccc(OCc3ccccn3)cc2c(=O)n1-c1ccc(N)cc1` [T-1032]: the “Z Score” value is recorded as −2.02. Besides, under setting [7], the Z score is −2.020. Further, the Activity entry under setting [8] was “no”.
Consider `Clc1cnc(Oc2ccc(Oc3ncc(Cl)cc3Cl)cc2)c(Cl)c1` [TCPOBOP], for which the “Z Score” value under setting [5] is recorded as −2.008. Under setting [2], this compound registered a Z score of −2.008. Moreover, under setting [9], the Activity entry is on record as “no”.
With `CCSC(N)=Nc1ccc(C(F)(F)F)cc1.Cl` [TFPI hydrochloride], the “Z Score” value under setting [4] is −1.156. Further, the Z score under setting [2] is recorded as −1.156. The Activity entry under setting [3] is “no”.
As for `Cl.O=c1[nH]oc2c1CCNC2` [THIP hydrochloride], the “Z Score” value is listed as 0.3613. Also, under setting [7], the Z score worked out at 0.361. Under setting [8], the Activity result was “no”.
Regarding `CCN(CC)CCCCCCCCOC(=O)c1cc(OC)c(OC)c(OC)c1.Cl` [TMB-8 hydrochloride], the “Z Score” value stood at 1.707. The same compound returned a Z score under setting [2] of 1.707. In addition, the Activity entry under setting [9] is “no”.
For `CP(=O)(O)C1=CCNCC1` [TPMPA], the “Z Score” value is 0.8742. Under setting [7], this compound registered a Z score of 0.874. In addition, under setting [8], the Activity result is on record as “no”.
On to `C/C(=C\c1ccc(C(=O)O)cc1)c1ccc2c(c1)C(C)(C)CCC2(C)C` [TTNPB], for which the “Z Score” value is recorded as −2.158. The same compound yielded a Z score under setting [7] of −2.158. The Activity entry under setting [8] is recorded as “no”.
For `CC/C(=C(\c1ccccc1)c1ccc(OCCN(C)C)cc1)c1ccccc1` [Tamoxifen citrate], the Activity result is “yes”. Also, the “Z Score” value under setting [5] is recorded as −10.64. Under setting [2], the Z score is −10.643.
Turning to `NCCS(=O)(=O)O` [Taurine], under setting [1], the “Z Score” value turned out to be 0.5328. This compound also had a Z score under setting [7] of 0.533. Also, under setting [8], the Activity result is “no”.
On to `CC(=O)O[C@H]1C(=O)[C@@]2(C)[C@H]([C@H](OC(=O)c3ccccc3)[C@]3(O)C[C@H](OC(=O)[C@H](O)[C@@H](NC(=O)c4ccccc4)c4ccccc4)C(C)=C1C3(C)C)[C@]1(OC(C)=O)CO[C@@H]1C[C@@H]2O` [Taxol], for which the “Z Score” value under setting [5] is −11.27. Moreover, under setting [2], the Z score is given as −11.274. Under setting [9], the Activity entry is listed as “yes”.
As for `Cc1scc2c1N(C(=O)CN1CCN(C)CC1)c1ccccc1NC2=O` [Telenzepine dihydrochloride], where the note is “168 h, 3 µM”, the “Z Score” value was determined as 0.3813 and the Z score is recorded as 0.381. Besides, the Activity result under setting [8] is reported as “no”.
Take `COc1cc2nc(N3CCN(C(=O)C4CCCO4)CC3)nc(N)c2cc1OC` (stereo not drawn) [Terazosin hydrochloride]: the Activity entry is recorded as “no”. Besides, the “Z Score” value under setting [1] was −0.05722. Moreover, under setting [7], the Z score was −0.057.
Taken in the same sequence, the figures for `CC(C)(C)c1ccc(C(O)CCCN2CCC(C(O)(c3ccccc3)c3ccccc3)CC2)cc1` (stereo not drawn) [Terfenadine] were “no”, 0.7553 and 0.755.
`CCCCNc1ccc(C(=O)OCCN(C)C)cc1` [Tetracaine hydrochloride]: the “Z Score” value under setting [1] is −0.01953. This compound also had a Z score under setting [7] of −0.020. Also, under setting [8], the Activity result is given as “no”.
For `CC[N+](CC)(CC)CC.[Cl-]` [Tetraethylammonium chloride], the Activity entry is listed as “no”, the “Z Score” value is recorded as 0.123 and the Z score turned out to be 0.123.
Regarding `CCN(CC)C(=S)SSC(=S)N(CC)CC` [Tetraethylthiuram disulfide], under setting [6], the “Z Score” value came out at 2.347. Under setting [7], this compound gave a Z score of 2.347. Further, under setting [8], the Activity entry is listed as “no”.
Take `c1ccc2c(c1)CCCC2C1=NCCN1` (stereo not drawn) [Tetrahydrozoline hydrochloride]: the “Z Score” value under setting [4] is −0.4693. Moreover, under setting [7], the Z score is −0.469. For the same compound, the Activity result under setting [8] is reported as “no”.
`CC(C)NP(=O)(NC(C)C)OP(=O)(NC(C)C)NC(C)C` [Tetraisopropyl pyrophosphoramide]: the “Z Score” value was −1.114. Further, under setting [7], the Z score is recorded as −1.114. For the same compound, the Activity entry under setting [8] is given as “no”.
On to `c1ccc(C2CN3CCSC3=N2)cc1` (stereo not drawn) [Tetramisole hydrochloride], for which the “Z Score” value under setting [6] stood at 2.649. Under setting [7], this compound registered a Z score of 2.649. Further, the Activity result under setting [8] is on record as “no”.
Regarding `C/C=C(/C)C(=O)O[C@H]1C(C)=C2[C@H]([C@@H]1OC(=O)CCCCCCC)[C@@](C)(OC(C)=O)C[C@H](OC(=O)CCC)[C@@]1(O)[C@H]2OC(=O)[C@@]1(C)O` [Thapsigargin], the “Z Score” value under setting [5] is −9.559. This compound also had a Z score under setting [2] of −9.559. Further, the Activity entry under setting [9] is “yes”.
In the case of `Cn1cnc2c1c(=O)[nH]c(=O)n2C` [Theobromine], for the setting “168 h, 3 µM”, the “Z Score” value is reported as −1.392 and the Z score is recorded as −1.392. Also, the Activity entry under setting [8] was “no”.
`Cn1c(=O)c2[nH]cnc2n(C)c1=O` [Theophylline]: the Activity entry was “no”. Also, the “Z Score” value under setting [1] was found to be 0.3699. In addition, the Z score under setting [7] was found to be 0.370.
Turning to `NC(=S)c1ccc[n+]([C@@H]2O[C@@H](COP(=O)([O-])OP(=O)(O)OC[C@H]3O[C@@H](n4cnc5c(N)ncnc54)C(OP(=O)([O-])O)[C@H]3O)C(O)C2O)c1.[Na+]` (stereo partly drawn) [Thio-NADP sodium], the “Z Score” value amounted to 0.3661. The compound further had a Z score under setting [7] of 0.366. The Activity entry under setting [8] was “no”.
`C=C/C(C)=C/[C@@]1(C)SC(=O)C(C)=C1O` [Thiolactomycin]: the “Z Score” value under setting [5] was −1.3. The compound also gave a Z score under setting [2] of −1.300. In addition, the Activity entry under setting [3] is listed as “no”.
As to `S=C(NC1CCCCC1)N1CCC(c2cnc[nH]2)CC1` [Thioperamide maleate], the “Z Score” value under setting [4] is −0.1537. This compound also yielded a Z score under setting [7] of −0.154. The Activity entry under setting [8] is on record as “no”.
Regarding `CSc1ccc2c(c1)N(CCC1CCCCN1C)c1ccccc1S2` (stereo not drawn) [Thioridazine hydrochloride], where the note is “168 h, 3 µM”, the “Z Score” value amounted to 0.2356 and the Z score amounted to 0.236. Also, the Activity entry under setting [10] was “no”.
As for `CN1CCN(CC/C=C2/c3ccccc3Sc3ccc(S(=O)(=O)N(C)C)cc32)CC1` [Thiothixene hydrochloride], the Activity result is on record as “no”. Where the note is “168 h, 3 µM”, the “Z Score” value is reported as −1.899 and the Z score is −1.899.
Regarding `CCN(CC)CCNC(=O)c1cc(S(C)(=O)=O)ccc1OC` [Tiapride hydrochloride], under setting [1], the “Z Score” value was 0.6889. Under setting [2], this compound showed a Z score of 0.689. Besides, under setting [10], the Activity entry is on record as “no”.
Turning to `Cc1ccc(S(=O)(=O)NC(=O)NN2CCCCCC2)cc1` [Tolazamide], under setting [1], the “Z Score” value was 1.431. In addition, the Z score under setting [7] is recorded as 1.431. Also, the Activity entry under setting [8] is recorded as “no”.
As to `CCCCNC(=O)NS(=O)(=O)c1ccc(C)cc1` [Tolbutamide], the Activity entry was “no”. For the same compound, the “Z Score” value under setting [4] was −0.3032. This compound yielded a Z score under setting [7] of −0.303.
